Measurements from ChEMBL document CHEMBL5678797, “AZD7762, a novel checkpoint kinase inhibitor, drives checkpoint abrogation and potentiates DNA-targeted therapies” (Mol Cancer Ther, 2008).
pEC50: −log10 of the molar value.

Columns and labels:
SW-620 [1] = test: Antitumor activity against human SW620 cells xenografted in athymic mouse model assessed as T/C ratio at 25 mg/kg measured after 17 to 94 days post tumor implantation by caliper method relative to control; assay type: functional; settings: time 17-94 day
MDA-MB-231 [2] = test: Growth inhibition of human MDA-MB-231 cells expressing p53 mutant assessed as reduction in cell growth incubated for 48 hrs in presence of topotecan; assay type: functional
SW-620 [3] = test: Antitumor activity against human SW620 cells xenografted in athymic mouse model assessed as inhibition of tumor volume at 25 mg/kg measured after 17 to 94 days post tumor implantation in presence of 50 mg/kg of irinotecan by caliper method relative to control; assay type: functional; set-up: scale not given: the % may be the effect or the level left; settings: time 17-94 day
SW-620 [4] = test: Antitumor activity against human SW620 cells xenografted in athymic mouse model assessed as T/C ratio at 25 mg/kg measured after 17 to 94 days post tumor implantation in presence of 50 mg/kg of irinotecan by caliper method relative to control; assay type: functional; settings: time 17-94 day
SW-620 [5] = test: Antitumor activity against human SW620 cells xenografted in athymic mouse model assessed as T/C ratio at 25 mg/kg measured after 17 to 94 days post tumor implantation in presence of 25 mg/kg of irinotecan by caliper method relative to control; assay type: functional; settings: time 17-94 day
[6] = Toxicity in NCr athymic mouse xenografted with human SW620 cells assessed as effect on body weight loss at 12.5 to 25 mg/kg measured after 30 to 55 days in presence of gemcitabine; assay type: organism-based, SW-620; settings: in vivo, dose lower 12.5 mg/kg, time lower 30 day, dose upper 25 mg/kg, time upper 55 day
SW-620 [7] = test: Antitumor activity against human SW620 cells xenografted in athymic mouse model assessed as inhibition of tumor volume at 25 mg/kg measured after 17 to 94 days post tumor implantation in presence of 25 mg/kg of irinotecan by caliper method relative to control; assay type: functional; set-up: scale not given: the % may be the effect or the level left; settings: time 17-94 day
NCI-H460 [8] = test: Antitumor activity against human NCI-H460 cells expressing DNp53 mutant xenografted in rat model assessed as T/C ratio at 20 mg/kg measured after 10 to 30 days post tumor implantation in presence of gemcitabine by caliper method relative to control; assay type: functional; settings: time 10-30 day
[9] = Toxicity in NCr athymic mouse assessed as body weight loss at 25 mg/kg measured after 10 to 45 days in presence of gemcitabine relative to control; assay type: organism-based; settings: in vivo, time 10-45 day
[10] = Toxicity in athymic mouse assessed as maximum weight loss at 25 mg/kg measured after 17 to 94 days post tumor implantation in presence of 25 mg/kg of irinotecan; assay type: organism-based; settings: in vivo, time 17-94 day
[11] = Toxicity in rat at low dose measured after 10 to 30 days post tumor implantation; settings: in vivo, time 10-30 day
HCT-116 [12] = test: Induction of G2 check point abrogation in human HCT-116 cells assessed as accumulation of cells at G1 phase incubated for 30 hrs in presence of topotecan by fluorescence-activated cell sorting analysis (reference value: 68.52%); assay type: functional
NCI-H460 [13] = test: Antitumor activity against human NCI-H460 cells expressing DNp53 mutant xenografted in NCr athymic mouse model assessed as T/C ratio at 25 mg/kg measured after 10 to 45 days in presence of gemcitabine by caliper method relative to control; assay type: functional; settings: time 10-45 day
[14] = Toxicity in rnu rat assessed as appearance of skin rashes at 10 to 20 mg/kg, iv measured after 10 to 30 days post tumor implantation; assay type: organism-based; settings: in vivo, dose lower 10 mg/kg, time lower 10 day, dose upper 20 mg/kg, time upper 30 day
HT-29 [15] = test: Inhibition of camptothecin induced DNA damage in human HT-29 cells assessed as G2 checkpoint abrogation measured after 20 hrs presence of nocodazole by pHH3 staining based analysis
[16] = Toxicity in rat assessed as effect on body weight loss at high dose measured after 10 to 30 days post tumor implantation; settings: in vivo, time 10-30 day
SW-620 [17] = test: Antitumor activity against human SW620 cells xenografted in NCr athymic mouse model assessed as reduction in tumor volume at 12.5 mg/kg measured from 30 to 55 days in presence of gemcitabine by caliper method relative to control; assay type: functional; set-up: scale not given: the % may be the effect or the level left; settings: time 30-55 day
[18] = Toxicity in athymic mouse assessed as maximum weight loss at 25 mg/kg measured after 17 to 94 days post tumor implantation in presence of 50 mg/kg of irinotecan; assay type: organism-based; settings: in vivo, time 17-94 day
HT-29 [19] = test: Induction of cell cycle arrest in human HT-29 cells incubated for 20 hrs by phH3 staining based analysis
HCT-116 [20] = test: Induction of G2 check point abrogation in human HCT-116 cells assessed as accumulation of cells at G2 phase incubated for 30 hrs in presence of topotecan by fluorescence-activated cell sorting analysis (reference value: 9.45%); assay type: functional
SW-620 [21] = test: Growth inhibition of human SW620 cells expressing p53 mutant assessed as reduction in cell growth incubated for 48 hrs in presence of gemcitabine; assay type: functional
[22] = Toxicity in athymic mouse assessed as maximum weight loss at 25 mg/kg measured after 17 to 94 days post tumor implantation; assay type: organism-based; settings: in vivo, time 17-94 day
SW-620 [23] = test: Antitumor activity against human SW620 cells xenografted in athymic mouse model assessed as inhibition of tumor volume at 25 mg/kg measured after 17 to 94 days post tumor implantation by caliper method relative to control; assay type: functional; set-up: scale not given: the % may be the effect or the level left; settings: time 17-94 day
NCI-H460 [24] = test: Antitumor activity against human NCI-H460 cells expressing DNp53 mutant xenografted in NCr athymic mouse model assessed as reduction in tumor volume at 25 mg/kg measured after 10 to 45 days in presence of gemcitabine by caliper method relative to control; assay type: functional; set-up: scale not given: the % may be the effect or the level left; settings: time 10-45 day
NCI-H460 [25] = test: Antitumor activity against human NCI-H460 cells expressing DNp53 mutant xenografted in NCr athymic mouse model assessed as log cell kill 25 mg/kg measured after 10 to 45 days in presence of gemcitabine; assay type: functional; settings: time 10-45 day
SW-620 [26] = test: Antitumor activity against human SW620 cells xenografted in NCr athymic mouse model assessed as reduction in tumor volume at 25 mg/kg measured from 30 to 55 days in presence of gemcitabine by caliper method relative to control; assay type: functional; set-up: scale not given: the % may be the effect or the level left; settings: time 30-55 day
NCI-H460 [27] = test: Antitumor activity against human NCI-H460 cells expressing DNp53 mutant xenografted in rat model assessed as T/C ratio at 10 mg/kg measured after 10 to 30 days post tumor implantation in presence of gemcitabine by caliper method relative to control; assay type: functional; settings: time 10-30 day
[28] = Toxicity in rnu rat assessed as appearance of hemorrhage at 10 mg/kg measured after 10 to 30 days; assay type: organism-based; settings: in vivo, time 10-30 day
[29] = Toxicity in rnu rat assessed as appearance of skin rashes at 10 mg/kg measured after 10 to 30 days; assay type: organism-based; settings: in vivo, time 10-30 day
SW-620 [30] = test: Growth inhibition of human SW620 cells expressing p53 mutant assessed as reduction in cell growth incubated for 48 hrs; assay type: functional
SW-620 [31] = test: Antitumor activity against human SW620 cells xenografted in athymic mouse model assessed as T/C ratio at 50 mg/kg measured after 17 to 94 days post tumor implantation by caliper method relative to control; assay type: functional; settings: time 17-94 day
[32] = Toxicity in athymic mouse assessed as maximum weight loss at 50 mg/kg measured after 17 to 94 days post tumor implantation; assay type: organism-based; settings: in vivo, time 17-94 day
MDA-MB-231 [33] = test: cells; settings: Homo sapiens, MDA-MB-231, 48 h
HCT-116 [34] = test: Induction of G2 check point abrogation in human HCT-116 cells assessed as accumulation of cells at G1 phase incubated for 30 hrs by fluorescence-activated cell sorting analysis (reference value: 68.52%); assay type: functional
HCT-116 [35] = test: Induction of G2 check point abrogation in human HCT-116 cells assessed as accumulation of cells at G2 phase incubated for 30 hrs by fluorescence-activated cell sorting analysis (reference value: 9.45%); assay type: functional

Molecule `NC(=O)Nc1cc(-c2cccc(F)c2)sc1C(=O)N[C@H]1CCCNC1` [AZD-7762] has a T/C (SW-620 [1]) of 56%, a GI50 (MDA-MB-231 [2]) of 150 nM and an Activity (SW-620 [3]) of 116%. For the same molecule, the T/C (SW-620 [4]) was -67%, the T/C (SW-620 [5]) was -66% and the Activity [6] was “Non-Toxic”. The Activity (SW-620 [7]) was 116%, the T/C (NCI-H460 [8]) was 32% and the Activity [9] was 7%. For the same molecule, the Activity [10] was 0%, the Activity [11] was “Non-Toxic” and the Activity (HCT-116 [12]) was 52.86%. For the same molecule, the T/C (NCI-H460 [13]) was 26%, the Activity [14] was “Non-Toxic” and the pEC50 (HT-29 [15]) was 8.00. The Activity [16] was “Toxic”, the Activity (SW-620 [17]) was 73% and the Activity [18] was 0%. The pEC50 (HT-29 [19]) was 6.21, the Activity (HCT-116 [20]) was 33.02% and the GI50 (SW-620 [21]) was 1.08 nM. It also gave a TGI (SW-620 [21]; read-out: GI100) of 1.5 nM, an Activity [22] of 0% and an Activity (SW-620 [23]) of 38%. The Activity (NCI-H460 [24]) was 76%, the LCK (NCI-H460 [25]) was 0.9 and the Activity (SW-620 [26]) was 77%. For the same molecule, the T/C (NCI-H460 [27]) was 48%.
For `Nc1ccn([C@@H]2O[C@H](CO)[C@@H](O)C2(F)F)c(=O)n1` [GEMCITABINE], the Activity [28] was “Toxic”, the Activity [29] was “Toxic” and the GI50 (SW-620 [30]) was 24.1 nM. For the same molecule, the TGI (SW-620 [30]; read-out: GI100) was > 100 nM.
Molecule `CCc1c2c(nc3ccc(OC(=O)N4CCC(N5CCCCC5)CC4)cc13)-c1cc3c(c(=O)n1C2)COC(=O)[C@]3(O)CC` [IRINOTECAN] has a T/C (SW-620 [1]) of 9%, a T/C (SW-620 [31]) of 1% and an Activity [32] of -1%. The Activity [22] was 0%.
For `CC[C@@]1(O)C(=O)OCc2c1cc1n(c2=O)Cc2cc3c(CN(C)C)c(O)ccc3nc2-1` [TOPOTECAN], the GI50 (MDA-MB-231 [33]) was 2250 nM, the Activity (HCT-116 [34]) was 17.06% and the Activity (HCT-116 [35]) was 75.85%.
